Consider 21 compounds from patent publication US12264159B2, “Functionalized heterocycles as antiviral agents” (Enanta Pharmaceuticals, Inc., priority 2018, dated 2025).

A short description of data set [1]: Compound induced cellular toxicity in HepG2 cells, ATPlite 1Step. The class given is cell-based. The following applies: human, three days exposure, 50% reduction of total ATP vs no drug controls. The method, then: At day 3, post seeding cells are treated with ATPlite 1Step according to the manufacturer's instructions.
Background: ATP-based viability assays read luminescence as a measure of living cells.

Data set [2] has as its system HBV in 2.2.15 cells. The data set is described as follows: 2.2.15 cells: viral product in cell lysates quantified via quantitative real time PCR. The class given is cell-based, hepatitis B virus (HBV). The following applies: Hepatitis B virus, 120 h, day 5 post treatment, 50% reduction of viral product vs no drug controls, readout (qPCR, HBsAg or HBeAg) not specified for the column. The procedure:
2.2.15 cells are passaged upon attaining confluency in DMEM/F12 media in the presence of 10% FBS, Penn/Strep, and 250 ug/mL G418. Novel compounds are 5 fold serially diluted in DMSO and added to 96 well plates containing 35,000 cells/well at a 1:200 dilution so that the final concentration of DMSO is 0.5%. On day 5, post treatment cell lysates and supernatants are harvested for analysis.
Cells are lysed using Agilent Sidestep Lysis buffer, diluted 1:100 and quantified via quantitative real time PCR. Commercially available ELISA kits are used to quantitate the viral proteins HBsAg (Alpco) or HBeAg (US Biological) by following the manufacturer's recommended protocol after diluting samples to match the linear range of their respective assays. Irrespective of readout, compound concentrations that reduce viral product accumulation in the cell lysates or supernatants by 50% relative to no drug controls (EC50) are reported; EC50 ranges are as follows: A<0.1 μM; B 0.2-1 μM; C>1 μM.
For orientation: Real-time PCR tracks product formation cycle by cycle.

Broadly, the CC50 is the concentration that lowers cell viability or growth by half. Low values mean harm at low concentration, high ones better tolerance by the cells. For orientation: EC50 means the concentration needed to bring the measured effect to its halfway point. Low values mean a more potent agent, high ones a less potent agent.

In turn, `CC(C)(C)[C@@H]1Cn2nc(-c3ccc(F)cc3)cc2-c2cc(=O)c(C(=O)O)cn21` [Example 1, (R)-6-(tert-butyl)-2-(4-fluorophenyl)-10-oxo-5,6-dihydro-10H-pyrazolo[1,5-a]pyrido[2,2-c]pyrazine-12-carboxylic acid] gave a CC50 at 3 days in data set [1] above 25000 nM. In data set [2], the concentration giving a half-maximal response (EC50) was below 100 nM.

In data set [1], `CC(C)(C)[C@@H]1Cn2nc(-c3cccc(F)c3)cc2-c2cc(=O)c(C(=O)O)cn21` [Example 2, (R)-6-(tert-butyl)-2-(3-fluorophenyl)-10-oxo-5,6-dihydro-10H-pyrazolo[1,5-a]pyrido[2,2-c]pyrazine-12-carboxylic acid] came in with a CC50 at 3 days above 25000 nM. Also, the EC50 in data set [2] was below 100 nM.

In data set [1], `CC(C)(C)[C@@H]1Cn2nc(-c3ccccc3F)cc2-c2cc(=O)c(C(=O)O)cn21` [Example 3, (R)-6-(tert-butyl)-2-(2-fluorophenyl)-10-oxo-5,6-dihydro-10H-pyrazolo[1,5-a]pyrido[2,2-c]pyrazine-12-carboxylic acid] gave a CC50 at 3 days above 25000 nM. The compound further showed a 50% effective concentration (EC50) in data set [2] below 100 nM.

On to `CC(C)(C)[C@@H]1Cn2nc(-c3ccoc3)cc2-c2cc(=O)c(C(=O)O)cn21` [Example 4, (R)-6-(tert-butyl)-2-(furan-3-yl)-10-oxo-5,6-dihydro-10H-pyrazolo[1,5-a]pyrido[2,2-c]pyrazine-12-carboxylic acid], for which, in data set [1], the half-maximal cytotoxic concentration (CC50) at 3 days is above 25000 nM. Further, the EC50 in data set [2] lay within 200 to 1000 nM.

As for `Cn1cc(-c2cc3n(n2)C[C@@H](C(C)(C)C)n2cc(C(=O)O)c(=O)cc2-3)cn1` [Example 5, (R)-6-(tert-butyl)-2-(2-methyl-1H-pyrazol-4-yl)-10-oxo-5,6-dihydro-10H-pyrazolo[1,5-a]pyrido[2,2-c]pyrazine-12-carboxylic acid], the CC50 at 3 days in data set [1] was above 25000 nM. Moreover, in data set [2], the concentration giving a half-maximal response (EC50) is below 100 nM.

In data set [1], `COc1ncc(-c2cc3n(n2)C[C@@H](C(C)(C)C)n2cc(C(=O)O)c(=O)cc2-3)cn1` [Example 6, (R)-6-(tert-butyl)-2-(2-methoxypyrimidin-5-yl)-10-oxo-5,6-dihydro-10H-pyrazolo[1,5-a]pyrido[2,2-c]pyrazine-12-carboxylic acid] had a CC50 at 3 days above 25000 nM. Besides, the EC50 in data set [2] is below 100 nM.

In data set [1], `CC(C)(C)[C@@H]1Cn2nc(-c3cnco3)cc2-c2cc(=O)c(C(=O)O)cn21` [Example 7, (R)-6-(tert-butyl)-2-(oxazol-5-yl)-10-oxo-5,6-dihydro-10H-pyrazolo[1,5-a]pyrido[2,2-c]pyrazine-12-carboxylic acid] had a CC50 at 3 days above 25000 nM. This compound gave a concentration for a half-maximal effect (EC50) in data set [2] of 200 to 1000 nM.

`CC(C)(C)[C@@H]1Cn2nc(-c3ccc(F)cc3F)cc2-c2cc(=O)c(C(=O)O)cn21` [Example 8, (R)-6-(tert-butyl)-2-(2,4-difluorophenyl)-10-oxo-5,6-dihydro-10H-pyrazolo[1,5-a]pyrido[2,2-c]pyrazine-12-carboxylic acid] yielded a half-maximal cytotoxic concentration (CC50) at 3 days in data set [1] above 25000 nM. In data set [2], this compound had an EC50 below 100 nM.

Regarding `CC(C)(C)[C@@H]1Cn2nc(-c3ccc(C(F)(F)F)cc3)cc2-c2cc(=O)c(C(=O)O)cn21` [Example 9, (R)-6-(tert-butyl)-10-oxo-2-(4-(trifluoromethyl)phenyl)-5,6-dihydro-10H-pyrazolo[1,5-a]pyrido[2,2-c]pyrazine-12-carboxylic acid], the CC50 at 3 days in data set [1] was above 25000 nM. Further, the 50% effective concentration (EC50) in data set [2] is below 100 nM.

In data set [1], `COc1ccc(-c2cc3n(n2)C[C@@H](C(C)(C)C)n2cc(C(=O)O)c(=O)cc2-3)cc1` [Example 10, (R)-6-(tert-butyl)-2-(4-methoxyphenyl)-10-oxo-5,6-dihydro-10H-pyrazolo[1,5-a]pyrido[2,2-c]pyrazine-12-carboxylic acid] displayed a CC50 at 3 days above 25000 nM. The same compound returned an EC50 in data set [2] below 100 nM.

In turn, `COc1cccc(-c2cc3n(n2)C[C@@H](C(C)(C)C)n2cc(C(=O)O)c(=O)cc2-3)c1` [Example 11, (R)-6-(tert-butyl)-2-(3-methoxyphenyl)-10-oxo-5,6-dihydro-10H-pyrazolo[1,5-a]pyrido[2,2-c]pyrazine-12-carboxylic acid] registered a CC50 at 3 days in data set [1] above 25000 nM. Moreover, in data set [2], the half-maximal effective concentration (EC50) is below 100 nM.

`COc1ccccc1-c1cc2n(n1)C[C@@H](C(C)(C)C)n1cc(C(=O)O)c(=O)cc1-2` [Example 12] had a CC50 at 3 days in data set [1] above 25000 nM. For the same compound, the EC50 in data set [2] was below 100 nM.

As to `CC(C)(C)[C@@H]1Cn2nc(-c3ccc(Cl)cc3)cc2-c2cc(=O)c(C(=O)O)cn21` [Example 13, (R)-6-(tert-butyl)-2-(4-chlorophenyl)-10-oxo-5,6-dihydro-10H-pyrazolo[1,5-a]pyrido[2,2-c]pyrazine-12-carboxylic acid], the CC50 at 3 days in data set [1] was above 25000 nM. In data set [2], this compound had an EC50 below 100 nM.

The compound `CNc1ncc(-c2cc3n(n2)C[C@@H](C(C)(C)C)n2cc(C(=O)O)c(=O)cc2-3)cn1` [Example 14, (R)-6-(tert-butyl)-2-(2-(methylamino)pyrimidin-5-yl)-10-oxo-5,6-dihydro-10H-pyrazolo[1,5-a]pyrido[2,2-c]pyrazine-12-carboxylic acid] had a CC50 at 3 days in data set [1] above 25000 nM. Besides, the EC50 in data set [2] lay in the range of 200 to 1000 nM.

Regarding `CC(C)[C@@H]1Cn2nc(-c3ccnnc3)c(-c3ccnnc3)c2-c2c(F)c(=O)c(C(=O)O)cn21` [Example 183, (R)-11-fluoro-6-isopropyl-10-oxo-1,2-di(pyridazin-4-yl)-5,6-dihydro-10H-pyrazolo[1,5-a]pyrido[2,1-c]pyrazine-9-carboxylic acid], the 50% effective concentration (EC50) in data set [2] lay within 200 to 1000 nM.

In the case of `CC(C)[C@@H]1Cn2nc(-c3ccncc3)c(-c3ccncc3)c2-c2c(F)c(=O)c(C(=O)O)cn21` [Example 184, (R)-11-fluoro-6-isopropyl-10-oxo-1,2-di(pyridin-4-yl)-5,6-dihydro-10H-pyrazolo[1,5-a]pyrido[2,1-c]pyrazine-9-carboxylic acid], in data set [2], the EC50 is 200 to 1000 nM.

In the case of `CC(C)[C@@H]1Cn2nc(-c3cccc(Cl)c3)c(-c3cccc(Cl)c3)c2-c2c(F)c(=O)c(C(=O)O)cn21` [Example 185, (R)-1,2-bis(3-chlorophenyl)-11-fluoro-6-isopropyl-10-oxo-5,6-dihydro-10H-pyrazolo[1,5-a]pyrido[2,1-c]pyrazine-9-carboxylic acid], the concentration for a half-maximal effect (EC50) in data set [2] was 200 to 1000 nM.

As to `CC(C)[C@@H]1Cn2nc(-c3cccnc3)c(-c3cccnc3)c2-c2c(F)c(=O)c(C(=O)O)cn21` [Example 189, (R)-11-fluoro-6-isopropyl-10-oxo-1,2-di(pyridin-3-yl)-5,6-dihydro-10H-pyrazolo[1,5-a]pyrido[2,1-c]pyrazine-9-carboxylic acid], the concentration for a half-maximal effect (EC50) in data set [2] was 200 to 1000 nM.

On to `CC(C)[C@@H]1Cn2nc(-c3cccc(O)c3)c(-c3cccc(O)c3)c2-c2c(F)c(=O)c(C(=O)O)cn21` [Example 190, (R)-11-fluoro-1,2-bis(3-hydroxyphenyl)-6-isopropyl-10-oxo-5,6-dihydro-10H-pyrazolo[1,5-a]pyrido[2,1-c]pyrazine-9-carboxylic acid], for which, in data set [2], the EC50 fell in the range of 200 to 1000 nM.

In turn, `O=C(O)c1cn2c(cc1=O)-c1c(-c3ccc(F)cc3)c(-c3ccc(F)cc3)nn1CC2` [Example 200, 1,2-bis(4-fluorophenyl)-10-oxo-5,6-dihydro-10H-pyrazolo[1,5-a]pyrido[2,1-c]pyrazine-9-carboxylic acid] registered an EC50 in data set [2] below 100 nM.

`O=C(O)c1cn2c(cc1=O)-c1c(-c3ccccc3F)c(-c3ccccc3F)nn1CC2` [Example 202, 1,2-bis(2-fluorophenyl)-10-oxo-5,6-dihydro-10H-pyrazolo[1,5-a]pyrido[2,1-c]pyrazine-9-carboxylic acid] showed a concentration giving a half-maximal response (EC50) in data set [2] below 100 nM.
